This note sets out measurements from DBAASP.

Among the test systems are Candida albicans; Staphylococcus aureus MR; Streptococcus uberis; Staphylococcus aureus; Leuconostoc lactis; Pasteurella multocida; Bacillus cereus; Listeria innocua; Micrococcus luteus; Escherichia coli; Escherichia coli DH10B; Vibrio anguillarum; Aeromonas salmonicida.
Holding throughout (experiment): ≥ marks a high value that may be exact or a test limit, other limits are often not marked, values filed in µg/mL are converted to µM
For experiment [1], the system named is Pseudomonas aeruginosa ATCC 27853.
The test system of experiment [2] is Staphylococcus aureus ATCC 49476.
Experiment [3] relates to Staphylococcus epidermidis.
The test system of experiment [4] is Candida krusei CCARM 14017.
Experiment [5] deals with Fusarium verticillioides KCTC 6149.
The subject of experiment [6] is Candida parapsilosis CCARM 14016.
Experiment [7] deals with Fusarium oxysporum KCTC 16909.
For experiment [8], the system named is Candida tropicalis KCTC 7221.
Experiment [9] has as its system Trichosporon beigelii KCTC 7707.
Experiment [10] deals with Saccharomyces cerevisiae BY4741.
The test system of experiment [11] is Pseudomonas aeruginosa Z61.
For experiment [12], the system named is Salmonella enterica subsp. enterica serovar Typhimurium ATCC 14028s.
The test system of experiment [13] is Salmonella enterica serovar typhimurium MS7953s.
Experiment [14] relates to Pseudomonas aeruginosa K799.
The test system of experiment [15] is Staphylococcus epidermidis C621.
The test system of experiment [16] is Escherichia coli CVCC 1515.
Experiment [17] has as its system Salmonella enterica subsp. enterica serovar Pullorum CVCC 1809.
Experiment [18] has as its system Salmonella enterica subsp. enterica serovar Typhimurium ATCC 14028.
In experiment [19] the test system is Candida albicans CGMCC 2.2411.
Experiment [20] concerns Enterococcus faecalis CVCC 3936.
Experiment [21] relates to Staphylococcus aureus ATCC 43300.
Experiment [22] deals with Escherichia coli CVCC 195.
In experiment [23] the test system is Bacillus subtilis ATCC 6633.
The subject of experiment [24] is Streptococcus suis CVCC 606.
Experiment [25] concerns Salmonella enterica subsp. enterica serovar Pullorum CVCC 533.
The test system of experiment [26] is Pseudomonas aeruginosa CICC 10419.
For experiment [27], the system named is Listeria ivanovii ATCC 19119.

≈ marks a conversion by molar mass, not a printed value. Where “and” joins values, the source holds several entries; their conditions need not be identical. Equal entries are not always repeated. Bounds are passed on as bounds.

By MIC is commonly meant the lowest concentration that inhibits growth of the organism. As for `CC[C@H](C)[C@H](NC(=O)[C@H](C)NC(=O)[C@H](CCCCN)NC(=O)CNC(=O)[C@H](C)NC(=O)[C@H](CO)NC(=O)[C@H](Cc1ccccc1)NC(=O)[C@H](CC(C)C)NC(=O)CNC(=O)CNC(=O)[C@@H](NC(=O)[C@@H](NC(=O)[C@H](Cc1cnc[nH]1)NC(=O)[C@H](Cc1cnc[nH]1)NC(=O)[C@H](C)NC(=O)[C@H](C)N)[C@@H](C)CC)[C@@H](C)CC)C(=O)N[C@@H](Cc1cnc[nH]1)C(=O)N[C@@H](CCCN=C(N)N)C(=O)N[C@@H](CC(C)C)C(=O)N[C@H](C(=O)N[C@@H](CCCN=C(N)N)C(=O)N[C@@H](CCCN=C(N)N)C(=O)N[C@@H](CCCN=C(N)N)C(=O)N[C@@H](CCCN=C(N)N)C(=O)N[C@@H](CCCN=C(N)N)C(=O)O)[C@@H](C)CC` [AAHHIIGGLFSAGKAIHRLIRRRRR], the MIC is 22.4 µM (≈ 64 µg/mL) with Candida albicans, 89.4 µM (≈ 256 µg/mL) in experiment [1], not below 179 µM against Staphylococcus aureus MR and not below 44.7 µM in experiment [2].

As to `CC[C@H](C)[C@H](NC(=O)[C@H](CO)NC(=O)[C@H](CO)NC(=O)[C@H](CCSC)NC(=O)[C@H](CC(C)C)NC(=O)CN)C(=O)NCC(=O)N[C@@H](CCCCN)C(=O)N[C@@H](C)C(=O)N[C@@H](CC(C)C)C(=O)NCC(=O)NCC(=O)N[C@@H](CC(C)C)C(=O)N[C@H](C(=O)N[C@H](C(=O)N[C@@H](CC(=O)O)C(=O)N[C@H](C(=O)N[C@@H](CC(C)C)C(=O)N[C@@H](CCCCN)C(=O)N1CCC[C@H]1C(=O)N[C@@H](CCCCN)C(=O)N[C@H](C(=O)N1CCC[C@H]1C(=O)N[C@@H](C)C(=O)N[C@@H](CO)C(=O)O)[C@@H](C)O)C(C)C)C(C)C)[C@@H](C)CC` [GLMSSIGKALGGLIVDVLKPKTPAS], the minimum inhibitory concentration (MIC) with Streptococcus uberis was 20.4 µM (≈ 50 µg/mL); in [3], not below 40.8 µM; in the experiment on Staphylococcus aureus it was more than 40.8 µM; against Leuconostoc lactis it was not below 40.8 µM; against Pasteurella multocida, not below 40.8 µM; in the experiment on Bacillus cereus, not below 40.8 µM. Moreover, the MIC is not below 40.8 µM against Listeria innocua, not below 40.8 µM in the experiment on Micrococcus luteus and more than 40.8 µM in the experiment on Escherichia coli.

With `CC[C@H](C)[C@H](NC(=O)[C@H](C)NC(=O)[C@H](CCC(=O)O)NC(=O)[C@H](Cc1cnc[nH]1)NC(=O)[C@H](C)NC(=O)CNC(=O)[C@H](CCC(N)=O)NC(=O)[C@H](Cc1ccccc1)NC(=O)[C@@H](NC(=O)[C@H](CCCCN)NC(=O)[C@H](CCCCN)NC(=O)[C@H](C)NC(=O)[C@H](C)NC(=O)[C@H](CC(N)=O)NC(=O)[C@H](CC(C)C)NC(=O)CN)C(C)C)C(=O)N[C@@H](CCCCN)C(=O)N[C@@H](CC(C)C)C(=O)N[C@H](C(=O)N[C@@H](CC(N)=O)C(=O)N[C@@H](CC(N)=O)C(=O)N[C@@H](Cc1cnc[nH]1)C(=O)N[C@H](C(=O)N[C@@H](CCC(N)=O)C(N)=O)C(C)C)[C@@H](C)CC` [GLNAAKKVFQGAHEAIKLINNHVQ], the minimal inhibitory concentration (MIC) in [4] was 8 µM (≈ 20.8 µg/mL); in [5], not below 48 µM; in [6], not below 64 µM; in experiment [7], 4 µM and 12 µM; in experiment [8], 4 µM and 2 µM; in experiment [9], 2 µM (≈ 5.2 µg/mL).

On to `CSCC[C@H](NC(=O)[C@@H]1CCCN1C(=O)[C@H](CCC(N)=O)NC(=O)CNC(=O)[C@@H]1CCCN1C(=O)[C@H](CCCCN)NC(=O)[C@H](CC(C)C)NC(=O)[C@H](CCC(N)=O)NC(=O)[C@H](CC(C)C)NC(=O)[C@H](Cc1c[nH]c2ccccc12)NC(=O)[C@H](Cc1cnc[nH]1)NC(=O)[C@H](Cc1c[nH]c2ccccc12)NC(=O)[C@H](Cc1ccccc1)NC(=O)[C@H](CCCN=C(N)N)NC(=O)[C@H](CC(N)=O)NC(=O)[C@H](CC(C)C)NC(=O)[C@H](Cc1ccccc1)NC(=O)[C@@H](N)CCCCN)C(=O)N[C@@H](Cc1ccc(O)cc1)C(=O)O` [KFLNRFWHWLQLKPGQPMY], for which the minimal inhibitory concentration (MIC) was 10 µM (≈ 24.9 µg/mL) in experiment [10] and 20 µM (≈ 49.8 µg/mL) against Escherichia coli DH10B.

`CC[C@H](C)[C@H](NC(=O)[C@@H](N)CO)C(=O)NCC(=O)N[C@@H](CO)C(=O)N[C@@H](C)C(=O)N[C@@H](Cc1ccccc1)C(=O)N[C@@H](CCCCN)C(=O)N[C@@H](CCCCN)C(=O)N[C@@H](C)C(=O)N[C@@H](C)C(=O)N[C@@H](Cc1cnc[nH]1)C(=O)N[C@H](C(=O)NCC(=O)N[C@@H](CCCCN)C(=O)N[C@@H](Cc1cnc[nH]1)C(=O)N[C@H](C(=O)NCC(=O)N[C@@H](CCCCN)C(=O)N[C@@H](C)C(=O)N[C@@H](C)C(=O)N[C@@H](CC(C)C)C(=O)NCC(=O)N[C@@H](C)C(=O)N[C@@H](C)C(=O)N[C@@H](C)C(=O)N[C@@H](CCCN=C(N)N)C(=O)N[C@@H](CCCN=C(N)N)C(=O)N[C@@H](CCCN=C(N)N)C(=O)N[C@@H](CCCCN)C(=O)O)C(C)C)C(C)C` [SIGSAFKKAAHVGKHVGKAALGAAARRRK]: the minimal inhibitory concentration (MIC) in experiment [11] came out at 21.7 µM (≈ 64 µg/mL); with Vibrio anguillarum it was 21.7 µM (≈ 64 µg/mL); in [12], 21.7 µM (≈ 64 µg/mL); with Aeromonas salmonicida, 10.9 µM (≈ 32 µg/mL); in experiment [13] it was 2.72 µM (≈ 8 µg/mL); in experiment [14], 21.7 µM (≈ 64 µg/mL). The compound also displayed a minimal inhibitory concentration (MIC) in experiment [15] of 21.7 µM (≈ 64 µg/mL).

As for `CC(C)[C@H](N)C(=O)N[C@H]1CSSC[C@@H](C(=O)N[C@@H](Cc2cnc[nH]2)C(=O)N[C@@H](CCCN=C(N)N)C(=O)N[C@@H](CCCN=C(N)N)C(=O)N[C@@H](C)C(=O)N[C@@H](CC(N)=O)C(=O)N[C@@H](CC(N)=O)C(=O)NCC(=O)N[C@H](C(=O)N[C@@H](CCCN=C(N)N)C(=O)N[C@H](C(=O)O)C(C)C)C(C)C)NC(=O)[C@H](CC(N)=O)NC(=O)[C@H](Cc2c[nH]c3ccccc23)NC(=O)[C@H](C)NC(=O)[C@H](Cc2ccccc2)NC(=O)CNC(=O)[C@H](CCCN=C(N)N)NC(=O)[C@H](Cc2ccc(O)cc2)NC(=O)[C@H](C(C)C)NC1=O` [VCVYRGFAWNCHRRANNGVRV], the minimal inhibitory concentration (MIC) is 25.8 µM (≈ 63.9 µg/mL) in experiment [16]; 25.8 µM (≈ 63.9 µg/mL) in experiment [17]; more than 25.8 µM in experiment [18]; 25.8 µM (≈ 63.9 µg/mL) in experiment [19]; 25.8 µM (≈ 63.9 µg/mL) in experiment [20]; more than 25.8 µM in experiment [21]. Also, the minimal inhibitory concentration (MIC) in experiment [22], in [23], in experiment [24], in experiment [25], in [26] and in [27] was 25.8 µM (≈ 63.9 µg/mL) throughout.
